Test results from patent publication US20100266503A1, “Breast Cancer Methods, Medicaments and Agents” (priority 2007, published 2010).
Non-standard residues stand in square brackets, D forms with d. Residues, ends and D or L forms follow the SMILES beside them. *: point of attachment. Nle = CCCC[C@H](N)C(=O)O; Cbz = O=C(OCc1ccccc1)*

Tests used:
Assay in all cases: Annexin V staining after GSI1
Assay type in all cases: cell-based
T47D cells = system: T47D cells
Experimental: (§1) We next did Annexin V staining which is a marker of apoptosis. Cells were treated with GSI1 for 0, 7, 24 and 48 hours. After trypsinizing, the cells were washed with PBS 5 times and then treated with RNAase (100 μg/ml) for 20 mins then propidium iodide was added at 50 μg/ml per 1×10^7 cells, and incubated overnight at 4° C. The samples were then filtered through a 70 μm mesh and run on a FACS with the following settings: Forward scatter 113, side scatter 356 and PE setting 380. Although there was an increase in staining indicating apoptosis, this was only approximately 10%. For example, in MDA-MB-231 cells there was a 5% increase in Annexin V staining after 7 hours of treatment and in T47D and MCF-7 cells there was an 8% increase in Annexin V staining. We have repeated these experiments with full cell cycle analysis at 7, 24 and 48 h post treatment and again detect apoptosis but […]. […] Nevertheless it is likely that cell proliferation is inhibited via another mechanism as opposed to the induction of cellular death.

MCF-7 cells = system: MCF-7 cells
Experimental: as §1

MDA-MB-231 cells = settings: after 7 hours of treatment
Experimental: as §1

CCCC[C@@H](C=O)NC(=O)[C@H](CC(C)C)NC(=O)[C@H](CC(C)C)NC(=O)OCc1ccccc1 [GSI1, Z-Leu-Leu-Nle-CHO] (Cbz-Leu-Leu-[Nle]-aldehyde)
increase in Annexin V staining (T47D cells): 8% | increase in Annexin V staining (MCF-7 cells): 8% | increase in Annexin V staining (MDA-MB-231 cells): 5%
